The record followed here is PubChem BioAssay AID504574 (Southern Research Specialized Biocontainment Screening …, 2011).

Structures are written as SMILES.

The assay concerns cytotoxicity counter-screen, cell viability, 2% serum. Kind of assay: viability loss in CXCR4-tropic fusion assay cells – cell-based, 2% serum, set 2, cytotoxicity control for HIV-1 antiviral lead project, dose response (AID 504574).

Consider `Cc1c2c(=O)n(-c3nc4ccccc4s3)nc-2cc(O)n1Cc1ccccc1`, for which the CC50 (as a rule, the concentration that lowers cell viability or growth by half) is 8.94 µM.
`Cc1c2c(=O)n(-c3nc4ccccc4s3)nc-2cc(O)n1Cc1ccc(F)cc1`: the CC50 was 4.88 µM.
For `Cc1c2c(=O)n(-c3nc4ccccc4s3)nc-2cc(O)n1Cc1ccncc1`, the CC50 was 9.26 µM.
To `Cc1c2c(=O)n(-c3nc4ccccc4s3)nc-2cc(O)n1C1CC1` belongs 3.82 µM.
In the case of `Cc1c2c(=O)n(-c3nc4ccccc4s3)nc-2cc(O)n1Cc1cccnc1`, the CC50 was 7.86 µM.
Take `Cc1c2c(=O)n(-c3nc4ccccc4s3)nc-2cc(O)n1CCC(C)C`: the CC50 was 18.6 µM.
To `Cc1c2c(=O)n(-c3nc4ccccc4s3)nc-2cc(O)n1CCc1cccs1` belongs 16 µM.
For `COc1ccc(Cn2c(O)cc3nn(-c4nc5ccccc5s4)c(=O)c-3c2C)cc1` the value was 5.52 µM.
As to `Cc1c2c(=O)n(-c3nc4ccccc4s3)nc-2cc(O)n1Cc1cccs1`, the CC50 is 5.51 µM.
`Cc1c2c(=O)n(-c3nc4ccccc4s3)nc-2cc(O)n1Cc1ccccc1Cl`: the CC50 was 6.06 µM.
Regarding `COc1ccccc1Cn1c(O)cc2nn(-c3nc4ccccc4s3)c(=O)c-2c1C`, the CC50 is 15.1 µM.
For `Cc1c2c(=O)n(-c3nc4ccccc4s3)nc-2cc(O)n1CCc1ccc(O)cc1` the value was 3.34 µM; for `COc1ccc(CCn2c(O)cc3nn(-c4nc5ccccc5s4)c(=O)c-3c2C)cc1`, 23.4 µM.
